According to ChEMBL document CHEMBL3639262, “Diazabenzo[de] anthracen-3-one compounds and methods for inhibiting PARP” (2013):

Target: Poly [ADP-ribose] polymerase 1 (Homo sapiens, UniProt P09874)
Test: PARP Enzyme Assay: The PARP enzyme assay is set up on ice in a volume of 100 microliters consisting of 100 mM Tris-HCl (pH 8.0), 1 mM MgCl2, 28 mM KCl, 28 mM NaCl, 0.1 mg/ml of DNase I activated herring sperm DNA (Sigma, Mo.), 3.0 micromolar [3H]nicotinamide adenine dinucleotide (470 mci/mmole), 7 micrograms/ml PARP enzyme, and various concentrations of the compounds to be tested. The reaction is initiated by incubating the mixture at 25° C. After 15 minutes of incubation, the reaction is terminated by adding 500 microliters of ice cold 20% (w/v) trichloroacetic acid. The precipitate formed is transferred onto a glass fiber filter (Packard Unifilter-GF/B) and washed three times with ethanol. After the filter is dried, the radioactivity is determined by scintillation counting.

Sequence of Poly [ADP-ribose] polymerase 1 (P09874 whole entry): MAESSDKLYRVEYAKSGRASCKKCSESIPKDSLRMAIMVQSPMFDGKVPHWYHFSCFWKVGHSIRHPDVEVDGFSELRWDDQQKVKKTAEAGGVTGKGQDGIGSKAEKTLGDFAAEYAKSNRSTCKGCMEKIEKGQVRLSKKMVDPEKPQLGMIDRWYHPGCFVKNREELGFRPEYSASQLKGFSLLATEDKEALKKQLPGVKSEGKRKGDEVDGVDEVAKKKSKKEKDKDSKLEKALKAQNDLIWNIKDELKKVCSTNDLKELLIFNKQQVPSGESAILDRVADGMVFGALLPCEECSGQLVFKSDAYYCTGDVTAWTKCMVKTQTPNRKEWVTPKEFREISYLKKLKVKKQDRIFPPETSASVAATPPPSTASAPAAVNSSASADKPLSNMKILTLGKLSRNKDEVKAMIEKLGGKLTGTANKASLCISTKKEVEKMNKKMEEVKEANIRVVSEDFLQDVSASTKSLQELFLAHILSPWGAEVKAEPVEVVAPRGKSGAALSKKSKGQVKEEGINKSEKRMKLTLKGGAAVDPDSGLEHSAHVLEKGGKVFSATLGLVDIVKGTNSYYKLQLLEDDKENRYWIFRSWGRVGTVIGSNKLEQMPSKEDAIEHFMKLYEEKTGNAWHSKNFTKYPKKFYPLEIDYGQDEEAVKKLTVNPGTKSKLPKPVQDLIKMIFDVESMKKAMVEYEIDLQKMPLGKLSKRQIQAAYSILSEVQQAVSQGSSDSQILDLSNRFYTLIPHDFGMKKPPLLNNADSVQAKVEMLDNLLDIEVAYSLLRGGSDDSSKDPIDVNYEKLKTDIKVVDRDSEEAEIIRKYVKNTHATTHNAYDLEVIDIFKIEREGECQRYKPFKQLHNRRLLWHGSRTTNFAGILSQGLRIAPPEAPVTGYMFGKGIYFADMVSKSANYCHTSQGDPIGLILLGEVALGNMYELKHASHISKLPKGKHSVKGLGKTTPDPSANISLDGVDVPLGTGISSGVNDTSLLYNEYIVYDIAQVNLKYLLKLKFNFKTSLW

IC50: 0.5 µM
SMILES: CCN(CC)CCN(CC)Cc1ccc2c(c1)-c1n[nH]c(=O)c3cccc(c13)O2
